# Assay results published in US20220169680A1 (priority 2018, published 2022).
# Tests used:
# Type in all cases: cell-based
# A549 cells [1] = system: A549 cells
# A549 cells [2] = system: A549 cells; remark: listed apart in the source
# A549 cells [3] = system: A549 cells; remark: listed apart in the source
substance,measurement,setting,value
"ERGLQRRRFVQNALN [NC, reference compound]",cell entry at all time points,A549 cells [1],no entry of polypeptides was observed
KRGPSTAGVPESMREEYRQEQQN [A/HongKong/97/98(H5N1)-M2-N-M-AH(60-82)],cell entry of rhodamine-labeled polypeptide,A549 cells [2],did not enter the cells
RLFFKIIYRRLKYGLKRG [Jilin-2004(H5N1)-M2-45-62 mut50],cell-penetrating peptide function compared with the parent polypeptide (confocal imaging),A549 cells [2],stronger than that of the parent Jilin-2004(H5N1)-M2-45-62 polypeptide
RRLFFKCIYRRLKYGLKR [Jilin-2004(H5N1)-M2-44-61 mut1],"ability to carry small RNA into cells compared with the transfection reagent RNAiMax group, qPCR",A549 cells [3],stronger than the transfection reagent RNAiMax group
KRGPSTEGVPESMREEYREEQQN [Caledonia/20/1999(H1N1)-M2-N-M-AH(60-82)],cell entry of rhodamine-labeled polypeptide,A549 cells [2],did not enter the cells
RLFFKCAYRRLKYGLKRG [Jilin-2004(H5N1)-M2-45-62 mut51],cell-penetrating peptide function compared with the parent polypeptide (confocal imaging),A549 cells [2],stronger than that of the parent Jilin-2004(H5N1)-M2-45-62 polypeptide
same,"ability to carry small RNA into cells compared with the transfection reagent RNAiMax group, qPCR",A549 cells [3],stronger than the transfection reagent RNAiMax group
RLFFKCIYRRLKYGAKRG [Jilin-2004(H5N1)-M2-45-62 mut59],"ability to carry small RNA into cells compared with the transfection reagent RNAiMax group, qPCR",A549 cells [3],stronger than the transfection reagent RNAiMax group
RLFFKCIYRRLTYGLKRG [Jilin-2004(H5N1)-M2-45-62 mut56],"ability to carry small RNA into cells compared with the transfection reagent RNAiMax group, qPCR",A549 cells [3],stronger than the transfection reagent RNAiMax group
DRFFFKRIFRRLKFRLKRRPST [Jilin-2004(H5N1)-M2-44-65 mut11],"ability to carry small RNA into cells compared with the transfection reagent RNAiMax group, qPCR",A549 cells [3],stronger than the transfection reagent RNAiMax group
DRFFFKCFYRRLK [Jilin-2004(H5N1)-M2-44-56 mut9],cell-penetrating peptide function compared with the parent polypeptide,A549 cells [1],enhanced compared to the parent polypeptide
KYGLKRGPSTEGVPESMR [FITC-Jilin-2004(H5N1)-M2-56-73],cell entry signal / cell entry properties,A549 cells [1],did not show cell entry properties
DRLFFKCIYRRLKYGRKR [Jilin-2004(H5N1)-M2-44-61 mut13],cell-penetrating peptide function compared with the parent polypeptide,A549 cells [1],stronger than that of the parent Jilin-2004(H5N1)-M2-44-61 polypeptide
RFFFRRFFRRFRFRFRRR [Jilin-2004(H5N1)-M2-45-62 mut13],cell-penetrating peptide function compared with the parent polypeptide (confocal imaging),A549 cells [2],stronger than that of the parent Jilin-2004(H5N1)-M2-45-62 polypeptide
DRLFFKIIYRRLKYGLKR [Jilin-2004(H5N1)-M2-44-61 mut8],"ability to carry small RNA into cells compared with the transfection reagent RNAiMax group, qPCR",A549 cells [3],stronger than the transfection reagent RNAiMax group
RLFIKCIYRRLKYGLKRG [Jilin-2004(H5N1)-M2-45-62 mut48],cell-penetrating peptide function compared with the parent polypeptide (confocal imaging),A549 cells [2],stronger than that of the parent Jilin-2004(H5N1)-M2-45-62 polypeptide
same,"ability to carry small RNA into cells compared with the transfection reagent RNAiMax group, qPCR",A549 cells [3],stronger than the transfection reagent RNAiMax group
RLFFRCIYRRLKYGLKRG [Jilin-2004(H5N1)-M2-45-62 mut1],"ability to carry small RNA into cells compared with the transfection reagent RNAiMax group, qPCR",A549 cells [3],stronger than the transfection reagent RNAiMax group
TEGVPESMREEYRQEQQS [FITC-Jilin-2004(H5N1)-M2-65-82],cell entry signal / cell entry properties,A549 cells [1],did not show cell entry properties
DRFFFKCIYRRLKYGLKRRPST [Jilin-2004(H5N1)-M2-44-65 mut2],"ability to carry small RNA into cells compared with the transfection reagent RNAiMax group, qPCR",A549 cells [3],stronger than the transfection reagent RNAiMax group
DRFFFKRIFRRLKYRLKRRPST [Jilin-2004(H5N1)-M2-44-65 mut10],cell-penetrating peptide function compared with the parent polypeptide,A549 cells [1],stronger than that of the parent Jilin-2004(H5N1)-M2-44-65 polypeptide
DRRRRKCRRRRRKYGRKR [Jilin-2004(H5N1)-M2-44-61 mut10],"ability to carry small RNA into cells compared with the transfection reagent RNAiMax group, qPCR",A549 cells [3],stronger than the transfection reagent RNAiMax group
DRLFFKCIYRRRKRGLKR [Jilin-2004(H5N1)-M2-44-61 mut12],"ability to carry small RNA into cells compared with the transfection reagent RNAiMax group, qPCR",A549 cells [3],stronger than the transfection reagent RNAiMax group
RLFFRRIYRRLRYRLRRR [Jilin-2004(H5N1)-M2-45-62 mut6],cell-penetrating peptide function compared with the parent polypeptide (confocal imaging),A549 cells [2],stronger than that of the parent Jilin-2004(H5N1)-M2-45-62 polypeptide
DRRFFKCIYRRLKYGLKR [Jilin-2004(H5N1)-M2-44-61 mut4],"ability to carry small RNA into cells compared with the transfection reagent RNAiMax group, qPCR",A549 cells [3],stronger than the transfection reagent RNAiMax group
RLFFRRIYRRLKYGLKRG [Jilin-2004(H5N1)-M2-45-62 mut2],cell-penetrating peptide function compared with the parent polypeptide (confocal imaging),A549 cells [2],stronger than that of the parent Jilin-2004(H5N1)-M2-45-62 polypeptide
DRLFFRRIYRRLKYGLKRGPST [Jilin-2004(H5N1)-M2-44-65 mut23],"ability to carry small RNA into cells compared with the transfection reagent RNAiMax group, qPCR",A549 cells [3],stronger than the transfection reagent RNAiMax group
RLFFRRIYRRLRYRLKRG [Jilin-2004(H5N1)-M2-45-62 mut4],cell-penetrating peptide function compared with the parent polypeptide (confocal imaging),A549 cells [2],stronger than that of the parent Jilin-2004(H5N1)-M2-45-62 polypeptide
DRLFFRRIYRRLRYRLRRRPST [Jilin-2004(H5N1)-M2-44-65 mut24],cell-penetrating peptide function compared with the parent polypeptide,A549 cells [1],stronger than that of the parent Jilin-2004(H5N1)-M2-44-65 polypeptide
RFFFKCFYRRLKYGLKRG [Jilin-2004(H5N1)-M2-45-62 mut8],"ability to carry small RNA into cells compared with the transfection reagent RNAiMax group, qPCR",A549 cells [3],stronger than the transfection reagent RNAiMax group
RRLKYGLKRGPSTEGVPE [FITC-Jilin-2004(H5N1)-M2-53-70],cell entry signal / cell entry properties,A549 cells [1],did not show cell entry properties
RLFFKCIYRRLKYGLKRG [A/HongKong/97/98(H5N1)-M2-N-M-AH(45-62)],cell entry of rhodamine-labeled polypeptide,A549 cells [2],could all enter A549 cells
DRFFFKCIFRRLKFGLKRGPST [Jilin-2004(H5N1)-M2-44-65 mut5],"ability to carry small RNA into cells compared with the transfection reagent RNAiMax group, qPCR",A549 cells [3],stronger than the transfection reagent RNAiMax group
RLFFKCIYRRAKYGLKRG [Jilin-2004(H5N1)-M2-45-62 mut55],"ability to carry small RNA into cells compared with the transfection reagent RNAiMax group, qPCR",A549 cells [3],stronger than the transfection reagent RNAiMax group
LKRGPSTEGVPESMREEY [FITC-Jilin-2004(H5N1)-M2-59-76],cell entry signal / cell entry properties,A549 cells [1],did not show cell entry properties
GPSTEGVPESMREEYRQE [FITC-Jilin-2004(H5N1)-M2-62-79],cell entry signal / cell entry properties,A549 cells [1],did not show cell entry properties
RLFFRRIYRRLRYGLKRG [Jilin-2004(H5N1)-M2-45-62 mut3],cell-penetrating peptide function compared with the parent polypeptide (confocal imaging),A549 cells [2],stronger than that of the parent Jilin-2004(H5N1)-M2-45-62 polypeptide
RLIFKCIYRRLKYGLKRG [Jilin-2004(H5N1)-M2-45-62 mut47],"ability to carry small RNA into cells compared with the transfection reagent RNAiMax group, qPCR",A549 cells [3],stronger than the transfection reagent RNAiMax group
RLFFKCIKRRLKYGLKRG [Jilin-2004(H5N1)-M2-45-62 mut52],"ability to carry small RNA into cells compared with the transfection reagent RNAiMax group, qPCR",A549 cells [3],stronger than the transfection reagent RNAiMax group
DRLFFICIYRRLKYGLKR [Jilin-2004(H5N1)-M2-44-61 mut6],"ability to carry small RNA into cells compared with the transfection reagent RNAiMax group, qPCR",A549 cells [3],stronger than the transfection reagent RNAiMax group
PLVVAASIIGILHLILWIL [Jilin-2004(H5N1)-M2-25-43],cell entry signal / cell entry properties,A549 cells [1],no cell entry signal was detected
same,"ability to carry small RNA (PGY-sRNA-26) into cells, qPCR",A549 cells [3],Only the polypeptide Jilin-2004(H5N1)-M2-45-62 had the ability to carry small RNA into the cells
RRLFFKCIYRRLKYGLKRGPST [Jilin-2004(H5N1)-M2-44-65 mut15],"ability to carry small RNA into cells compared with the transfection reagent RNAiMax group, qPCR",A549 cells [3],stronger than the transfection reagent RNAiMax group
KRGPSTEGVPESMREEYRQEQQS [Jilin-2004(H5N1)-M2-60-82],"ability to carry small RNA (PGY-sRNA-26) into cells, qPCR",A549 cells [3],Only the polypeptide Jilin-2004(H5N1)-M2-45-62 had the ability to carry small RNA into the cells
DRKRRKCKYRRKKYGRKR [Jilin-2004(H5N1)-M2-44-61 mut14],cell-penetrating peptide function compared with the parent polypeptide,A549 cells [1],stronger than that of the parent Jilin-2004(H5N1)-M2-44-61 polypeptide
same,"ability to carry small RNA into cells compared with the transfection reagent RNAiMax group, qPCR",A549 cells [3],stronger than the transfection reagent RNAiMax group
DRFFFKCFFRRFKFGLKRGPST [Jilin-2004(H5N1)-M2-44-65 mut6],"ability to carry small RNA into cells compared with the transfection reagent RNAiMax group, qPCR",A549 cells [3],stronger than the transfection reagent RNAiMax group
RLFSKSIYR1FKHGLKRG [Caledonia/20/1999(H1N1)-M2-N-M-AH(45-62)],cell entry of rhodamine-labeled polypeptide,A549 cells [2],could all enter A549 cells
RAFFKCIYRRLKYGLKRG [Jilin-2004(H5N1)-M2-45-62 mut46],"ability to carry small RNA into cells compared with the transfection reagent RNAiMax group, qPCR",A549 cells [3],stronger than the transfection reagent RNAiMax group
DRFFFKCIYRRLKYGLKRGPST [Jilin-2004(H5N1)-M2-44-65 mut1],"ability to carry small RNA into cells compared with the transfection reagent RNAiMax group, qPCR",A549 cells [3],stronger than the transfection reagent RNAiMax group
RRFFFKCFFRRFKFGLKRGPST [Jilin-2004(H5N1)-M2-44-65 mut7],"ability to carry small RNA into cells compared with the transfection reagent RNAiMax group, qPCR",A549 cells [3],stronger than the transfection reagent RNAiMax group
MSLLTEVETPTRNGWECRCSDSSD [Jilin-2004(H5N1)-M2-1-24],cell entry signal / cell entry properties,A549 cells [1],no cell entry signal was detected
same,"ability to carry small RNA (PGY-sRNA-26) into cells, qPCR",A549 cells [3],Only the polypeptide Jilin-2004(H5N1)-M2-45-62 had the ability to carry small RNA into the cells
RLFFKCIYSRLKYGLKRG [Jilin-2004(H5N1)-M2-45-62 mut53],"ability to carry small RNA into cells compared with the transfection reagent RNAiMax group, qPCR",A549 cells [3],stronger than the transfection reagent RNAiMax group
DRLFFKCIYRRLKYGLII [Jilin-2004(H5N1)-M2-44-61 mut16],"ability to carry small RNA into cells compared with the transfection reagent RNAiMax group, qPCR",A549 cells [3],stronger than the transfection reagent RNAiMax group
